Measured values: ChEMBL document CHEMBL5042473 (J Med Chem, 2022)
Values belong to the molecule of their own block, whether it stands above or below them.

What was measured:
[1] = target: Mitogen-activated protein kinase 14 (Homo sapiens, UniProt Q16539); assay: Inhibition of human p38 MAPK alpha incubated for 1 hr by photometric method
[2] = Metabolic stability in human liver microsomes assessed as parent compound remaining incubated for 120 mins; format: ADME, Microsome; details: read-out: Stability
[3] = Ratio of drug concentration in RjOrl:Swiss (CD-1) mouse brain to plasma at 10mg/kg, iv administered measured after 2 hrs by LC-MS/MS analysis; format: ADME, organism-based; details: brain and plasma, read-out: BPR
[4] = Drug uptake in RjOrl:Swiss (CD-1) mouse brain at 10 mg/kg, iv administered measured after 2 hrs by LC-MS/MS analysis; format: ADME, organism-based; details: read-out: Ct
[5] = Drug uptake in mouse C57BL/6 brain at 0.4 mg/kg,iv measured upto 240 mins by LC-MS/MS analysis; format: ADME, organism-based; details: in vivo, 4 h
Splenocyte = assay: Cytotoxicity against Balb/c mouse splenocytes assessed as metabolic activity at 1 to 10 nM incubated for 24 hrs by MTT assay; format: toxicity, cell-based; details: 0.01 µM, dose 1-10 nM
[6] = Cytotoxicity against Balb/c mouse splenocytes assessed as metabolic activity at 100 nM incubated for 24 hrs by MTT assay relative to LPS-stimulated splenocytes; format: toxicity, cell-based, Splenocyte; details: read-out: Activity
Blood = assay: Antiinflammatory activity against LPS-stimulated C57BL/6 mouse whole blood assessed as reduction in TNF-alpha at 1 nM incubated for 24 hrs by ELISA based method; format: functional; design: scale not given: the % may be the effect or the level left
[7] = Drug uptake in mouse C57BL/6 brain at 0.4 mg/kg,po measured upto 240 mins by LC-MS/MS analysis; format: ADME, organism-based; details: in vivo, 4 h

Chain of Mitogen-activated protein kinase 14 (Q16539 whole entry): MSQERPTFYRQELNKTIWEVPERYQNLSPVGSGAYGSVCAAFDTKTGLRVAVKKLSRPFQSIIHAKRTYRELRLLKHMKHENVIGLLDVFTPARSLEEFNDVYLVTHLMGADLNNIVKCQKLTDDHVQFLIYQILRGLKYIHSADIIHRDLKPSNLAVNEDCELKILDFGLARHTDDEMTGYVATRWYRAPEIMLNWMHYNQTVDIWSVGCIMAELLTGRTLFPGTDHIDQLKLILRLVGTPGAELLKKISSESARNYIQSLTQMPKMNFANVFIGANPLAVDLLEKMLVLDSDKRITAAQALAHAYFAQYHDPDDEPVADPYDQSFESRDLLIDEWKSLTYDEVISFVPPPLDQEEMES

IC50 [1]: 15 nM
Compound: Nc1ccccc1Nc1ccc2c(c1)CCc1ccc(C(=O)NC(CO)CO)cc1C2=O

IC50 [1]: 3 nM
remaining at 2 h [2]: 93%
Compound: COC(=O)[C@H](C)NC(=O)c1ccc2c(c1)C(=O)c1ccc(Nc3ccc(F)cc3F)cc1CC2

IC50 [1]: 1.3 nM
Kp at 2 h [3]: 0.24
remaining at 2 h [2]: 93%
Compound: O=C(NCCN1CCNCC1)c1ccc2c(c1)C(=O)c1ccc(Nc3ccc(F)cc3F)cc1CC2

IC50 [1]: 5.2 nM
Kp at 2 h [3]: 0.09
concentration at 2 h [4]: 5.9 ng/g
Compound: O=C(N[C@@H]1[C@@H](O)[C@H](O)[C@@H](CO)O[C@H]1O)c1ccc2c(c1)C(=O)c1ccc(Nc3ccc(F)cc3F)cc1CC2

IC50 [1]: 6.4 nM
Compound: O=C(NCCc1cccs1)c1ccc2c(c1)C(=O)c1ccc(Nc3ccc(F)cc3F)cc1CC2

IC50 [1]: 9.3 nM
Kp at 2 h [3]: 0.13
concentration at 2 h [4]: 8.2 ng/g
remaining at 2 h [2]: 93%
Compound: O=C(O)CNC(=O)c1ccc2c(c1)C(=O)c1ccc(Nc3ccc(F)cc3F)cc1CC2

IC50 [1]: 1.9 nM
Compound: CC(C)(C)OC(=O)N1CCN(CCNC(=O)c2ccc3c(c2)C(=O)c2ccc(Nc4ccccc4N)cc2CC3)CC1

IC50 [1]: 15 nM
Compound: Nc1ccccc1Nc1ccc2c(c1)CCc1ccc(C(=O)NCC(O)CO)cc1C2=O (stereo not drawn)

IC50 [1]: 8.4 nM
Kp at 2 h [3]: 0.59
remaining at 2 h [2]: 50%
Compound: CN(C)CCNC(=O)c1ccc2c(c1)C(=O)c1ccc(Nc3ccccc3N)cc1CC2

IC50 [1]: 12 nM
remaining at 2 h [2]: 0%
Compound: COC(=O)CNC(=O)c1ccc2c(c1)C(=O)c1ccc(Nc3ccc(F)cc3F)cc1CC2

IC50 [1]: > 1000 nM
Compound: CCCCCCCCCCCCCCCCNC(=O)c1ccc2c(c1)C(=O)c1ccc(Nc3ccc(F)cc3F)cc1CC2

IC50 [1]: 6.9 nM
Compound: COC(=O)[C@H](CCSC)NC(=O)c1ccc2c(c1)C(=O)c1ccc(Nc3ccc(F)cc3F)cc1CC2

IC50 [1]: 95 nM
Compound: CN(C)C(=O)c1ccc2c(c1)C(=O)c1ccc(Nc3ccc(F)cc3F)cc1CC2

IC50 [1]: 26 nM
Compound: Nc1ccccc1Nc1ccc2c(c1)CCc1ccc(C(=O)NCCc3cnc[nH]3)cc1C2=O

IC50 [1]: 20 nM
Compound: Nc1ccccc1Nc1ccc2c(c1)CCc1ccc(C(=O)NCCc3ccccc3)cc1C2=O

Compound: O=C(NCCOCCO)c1ccc2c(c1)C(=O)c1ccc(Nc3ccc(F)cc3F)cc1CC2
IC50 [1]: 10 nM
Drug uptake [5]: Not Active
Activity (Splenocyte): Non-Toxic
viability at 24 h, 0.1 µM [6]: 66%
Activity (Blood): 5%
Drug uptake [7]: Not Active

IC50 [1]: 18 nM
Kp at 2 h [3]: 0.08
remaining at 2 h [2]: < 38%
Compound: Nc1ccccc1Nc1ccc2c(c1)CCc1ccc(C(=O)NCCN3CCOCC3)cc1C2=O

IC50 [1]: 11 nM
Drug uptake [5]: Not Active
Drug uptake [7]: Not Active
Compound: CSCC[C@H](NC(=O)c1ccc2c(c1)C(=O)c1ccc(Nc3ccc(F)cc3F)cc1CC2)C(=O)O

IC50 [1]: 390 nM
Compound: CCCCCCCCNC(=O)c1ccc2c(c1)C(=O)c1ccc(Nc3ccc(F)cc3F)cc1CC2

IC50 [1]: 8 nM
remaining at 2 h [2]: 93%
Compound: O=C(O)CC[C@H](NC(=O)c1ccc2c(c1)C(=O)c1ccc(Nc3ccc(F)cc3F)cc1CC2)C(=O)O

IC50 [1]: 120 nM
Compound: O=C1c2ccc(Nc3ccc(F)cc3F)cc2CCc2ccc(C(=O)N3CCCCC3)cc21

IC50 [1]: 21 nM
Compound: O=C(NCCc1ccccc1)c1ccc2c(c1)C(=O)c1ccc(Nc3ccc(F)cc3F)cc1CC2

Compound: COC(=O)[C@@H](N)CCNC(=O)c1ccc2c(c1)C(=O)c1ccc(Nc3ccc(F)cc3F)cc1CC2
IC50 [1]: 2.3 nM
Drug uptake [5]: Not Active
Activity (Splenocyte): Non-Toxic
viability at 24 h, 0.1 µM [6]: 66%
Activity (Blood): 5%
remaining at 2 h [2]: 6%
Drug uptake [7]: Not Active

IC50 [1]: 36 nM
Kp at 2 h [3]: 0.31
concentration at 2 h [4]: 15 ng/g
Compound: O=C(N[C@@H](Cc1ccccc1)C(=O)O)c1ccc2c(c1)C(=O)c1ccc(Nc3ccc(F)cc3F)cc1CC2

IC50 [1]: 15 nM
Compound: COC(=O)[C@H](Cc1ccccc1)NC(=O)c1ccc2c(c1)C(=O)c1ccc(Nc3ccc(F)cc3F)cc1CC2

IC50 [1]: 1.7 nM
Kp at 2 h [3]: 0.17
Compound: O=C(NCCNCCO)c1ccc2c(c1)C(=O)c1ccc(Nc3ccc(F)cc3F)cc1CC2

IC50 [1]: 2.4 nM
Compound: CC(C)(C)OC(=O)N1CCN(CCNC(=O)c2ccc3c(c2)C(=O)c2ccc(Nc4ccc(F)cc4F)cc2CC3)CC1

IC50 [1]: 17 nM
Compound: COC(=O)CC[C@H](NC(=O)c1ccc2c(c1)C(=O)c1ccc(Nc3ccccc3N)cc1CC2)C(=O)OC
